Experimental data from the supplement of paper PMC10307832.

Legend:
Assay in all cases: relative viability (nuclei count vs DMSO), 5 days (fraction); higher = more cells survive
Bleomycin + Phenformin = compound: CC1=C(N=C(N=C1N)[C@H](CC(=O)N)NC[C@@H](C(=O)N)N)C(=O)N[C@@H]([C@H](C2=CN=CN2)OC3C(C(C(C(O3)CO)O)O)OC4C(C(C(C(O4)CO)O)OC(=O)N)O)C(=O)N[C@H](C)[C@H]([C@H](C)C(=O)N[C@@H]([C@@H](C)O)C(=O)NCCC5=NC(=CS5)C6=NC(=CS6)C(=O)NCCC[S+](C)C)O [Bleomycin] + N=C(N)NC(=N)NCCc1ccccc1 [Phenformin] (partner 250 µM); conditions: main component drawn
Outline: (§1)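 Lung cancer cell lines in 1536-well plates got either a single drug or a fixed anchor-drug dose together with five library-drug doses (not always all listed) in √10 steps, by pin tool, on the day after seeding. Nuclei were counted after 5 days, and relative viability is the treated-to-vehicle ratio of nuclei counts. Values are medians of duplicate plates.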

Bleomycin + Vorinostat = compound: CC1=C(N=C(N=C1N)[C@H](CC(=O)N)NC[C@@H](C(=O)N)N)C(=O)N[C@@H]([C@H](C2=CN=CN2)OC3C(C(C(C(O3)CO)O)O)OC4C(C(C(C(O4)CO)O)OC(=O)N)O)C(=O)N[C@H](C)[C@H]([C@H](C)C(=O)N[C@@H]([C@@H](C)O)C(=O)NCCC5=NC(=CS5)C6=NC(=CS6)C(=O)NCCC[S+](C)C)O [Bleomycin] + O=C(CCCCCCC(=O)Nc1ccccc1)NO [Vorinostat] (partner 1 µM); conditions: main component drawn
Outline: as §1

Etoposide + Vorinostat = compound: COc1cc([C@@H]2c3cc4c(cc3[C@@H](O[C@@H]3O[C@@H]5CO[C@@H](C)O[C@H]5[C@H](O)[C@H]3O)[C@H]3COC(=O)[C@H]23)OCO4)cc(OC)c1O [Etoposide] + O=C(CCCCCCC(=O)Nc1ccccc1)NO [Vorinostat] (partner 1 µM)
Outline: as §1

Etoposide + Lapatinib = compound: COc1cc([C@@H]2c3cc4c(cc3[C@@H](O[C@@H]3O[C@@H]5CO[C@@H](C)O[C@H]5[C@H](O)[C@H]3O)[C@H]3COC(=O)[C@H]23)OCO4)cc(OC)c1O [Etoposide] + CS(=O)(=O)CCNCc1ccc(-c2ccc3ncnc(Nc4ccc(OCc5cccc(F)c5)c(Cl)c4)c3c2)o1 [Lapatinib] (partner 2 µM)
Outline: as §1

Row | Cell Line | relative viability (Bleomycin + Phenformin; first compound 0.01 µM) | relative viability (Bleomycin + Phenformin; first compound 0.03162 µM) | relative viability (Bleomycin + Phenformin; first compound 0.1 µM) | relative viability (Bleomycin + Phenformin; first compound 0.3162 µM) | relative viability (Bleomycin + Phenformin; first compound 1 µM) | relative viability (Bleomycin + Vorinostat; first compound 0.01 µM) | relative viability (Bleomycin + Vorinostat; first compound 0.03162 µM) | relative viability (Bleomycin + Vorinostat; first compound 0.1 µM) | relative viability (Bleomycin + Vorinostat; first compound 0.3162 µM) | relative viability (Bleomycin + Vorinostat; first compound 1 µM) | relative viability (Etoposide + Vorinostat; first compound 0.01 µM) | relative viability (Etoposide + Vorinostat; first compound 0.03162 µM) | relative viability (Etoposide + Vorinostat; first compound 0.1 µM) | relative viability (Etoposide + Vorinostat; first compound 0.3162 µM) | relative viability (Etoposide + Vorinostat; first compound 1 µM) | relative viability (Etoposide + Lapatinib; first compound 0.01 µM) | relative viability (Etoposide + Lapatinib; first compound 0.03162 µM) | relative viability (Etoposide + Lapatinib; first compound 0.3162 µM) | relative viability (Etoposide + Lapatinib; first compound 1 µM) | relative viability (Etoposide + Lapatinib; first compound 0.1 µM)
1 | NCI-H596 | 0.673 | 0.728 | 0.635 | 0.343 | 0.366 | 0.479 | 0.438 | 0.438 | 0.22 | 0.293 | 0.52 | 0.672 | 0.449 | 0.591 | 0.323 | 0.94 | 1.03 | 1.08 | 0.625 | –
2 | NCI-H650 | 0.342 | 0.399 | 0.384 | 0.327 | 0.202 | 0.295 | 0.441 | 0.376 | 0.328 | 0.212 | 0.438 | 0.454 | 0.241 | 0.266 | 0.181 | 0.657 | 0.951 | 0.418 | 0.207 | 0.409
3 | SW 1573 | 0.276 | 0.316 | 0.272 | 0.205 | 0.14 | 0.609 | 0.447 | 0.481 | 0.271 | 0.187 | 0.646 | 0.625 | 0.359 | 0.228 | 0.142 | 1.03 | 1.12 | 0.696 | 0.267 | 0.576
4 | NCI-H1650 | 0.293 | 0.239 | 0.206 | 0.114 | 0.149 | 0.36 | 0.241 | 0.22 | 0.146 | 0.169 | 0.428 | 0.518 | 0.518 | 0.229 | 0.219 | 0.696 | 0.781 | 0.217 | 0.144 | 0.479
5 | NCI-H2009 | 0.474 | 0.512 | 0.489 | 0.403 | 0.383 | 0.662 | 0.739 | 0.854 | 0.541 | 0.36 | 0.704 | 0.631 | 0.571 | 0.597 | 0.409 | 0.885 | 1.08 | 0.408 | 0.247 | 0.856
6 | LOU-NH91 | 0.686 | 0.488 | 0.515 | 0.383 | 0.343 | 0.718 | 0.544 | 0.508 | 0.387 | 0.345 | 0.88 | 0.982 | 0.831 | 0.659 | 0.387 | 0.759 | 0.788 | 0.619 | 0.347 | 0.576
7 | NCI-H3122 | 0.341 | 0.379 | 0.5 | 0.194 | 0.198 | 1.15 | 0.882 | 0.823 | 0.517 | 0.334 | 1.04 | 1.11 | 0.598 | 0.66 | 0.224 | 1.09 | 0.998 | 0.91 | 0.451 | 0.97
8 | LCLC-97TM1 | 0.337 | 0.401 | 0.241 | 0.192 | 0.173 | 0.179 | 0.15 | 0.18 | 0.106 | 0.0733 | 0.783 | 0.896 | 0.315 | 0.316 | 0.0855 | – | 1.23 | 0.23 | 0.124 | 0.465
9 | NCI-H647 | 0.209 | 0.207 | 0.148 | 0.078 | 0.0537 | 0.205 | 0.132 | 0.105 | 0.0704 | 0.0607 | 0.467 | 0.631 | 0.657 | 0.181 | 0.103 | 1.05 | 0.984 | 0.185 | 0.0906 | 0.797
10 | NCI-H838 | 0.381 | 0.297 | 0.185 | 0.188 | 0.153 | 0.571 | 0.41 | 0.274 | 0.267 | 0.265 | 0.74 | 0.67 | 0.69 | 0.538 | 0.267 | 0.996 | 1.02 | 0.478 | 0.171 | 0.617
11 | H3255 | 0.35 | 0.372 | 0.367 | 0.301 | 0.301 | 0.737 | 0.891 | 0.538 | 0.682 | 0.363 | 0.788 | 0.774 | 0.458 | 0.278 | 0.314 | 0.234 | 0.241 | 0.262 | 0.196 | 0.228
12 | SK-MES-1 | 0.58 | 0.617 | 0.546 | 0.217 | 0.174 | 0.839 | 0.936 | 0.903 | 0.471 | 0.235 | 1.11 | 1.2 | 0.873 | 0.806 | 0.351 | 0.461 | 0.538 | 0.426 | 0.272 | 0.368
13 | NCI-H1437 | 0.248 | 0.283 | 0.287 | 0.229 | 0.212 | 0.712 | 0.758 | 0.733 | 0.458 | 0.413 | 0.871 | 0.877 | 0.804 | 0.435 | 0.396 | 0.754 | 0.837 | 0.398 | 0.186 | 0.577
14 | LU99A | 0.636 | 0.827 | 0.673 | 0.33 | 0.159 | 0.394 | 0.392 | 0.353 | 0.207 | 0.125 | 0.489 | 0.533 | 0.23 | 0.297 | 0.108 | 1.09 | 1.18 | 0.347 | 0.167 | 0.521
15 | HCC-827 | 0.351 | 0.311 | 0.361 | 0.304 | 0.172 | 0.857 | – | 0.736 | 0.585 | 0.207 | 0.917 | 0.972 | 0.746 | 0.605 | 0.181 | 0.172 | 0.262 | 0.208 | 0.134 | 0.205
